Results: patent EP4427759A1, “TRACEABLE CHIMERIC ANTIGEN RECEPTOR CELL” (Eberhard-Karls-Universität Tübingen, priority 2023, dated 2024)

What was measured:
[1] = system: HCT116 CTRL xenografts; assay: HCT116 control xenograft model, ex vivo biodistribution by gamma-counting; assay type: in vivo, NOD.CB17-Prkdcscid/J mice; settings: gamma-counting after 1 h dynamic PET scan, n = 5
Experimental: (§1) For the xenograft model, 5 × 10^6 cells/mL cells were injected. Five NOD.CB17-Prkdcscid/J were injected with HCT116 WT, and five additional mice were injected with HCT116 AdCAR subcutaneously into the right flank in a mixture of 1:1 Matrigel and PBS (200 µL per mouse) with a 1 mL syringe (30G canula). Afterwards the tumors grew for approximately two weeks before PET and MR measurements.
(§2) For the xenograft model a one-hour dynamic PET scan was performed. The mice were anaesthetized with isoflurane (initially 5%, then 1.5-2%) and a catheter was placed into the tail vein. The mice were placed onto the scanner bed and the body was centered into the field of view (FOV). Mice were injected with13.6 ± 0.35 MBq of [^18F]biotin3FB on average at the beginning of the PET scan and measured for 1h. Afterwards, MR scans were performed to gain anatomical information using an TurboRare spin-echo sequence. After the scans, the mice were sacrificed, and the organs were collected to quantify radiotracer uptake by ex vivo gamma-counting.
(§3) Reconstruction and analysis of the acquired PET/MR data was performed with Inveon Acquisition Workplace and Inveon Research Workplace (IRW), respectively, using dynamic framing and an ordered subset expectation maximization (OSEM) 3D algorithm. For the second part of the experiment statistic framing was used. […]

[2] = system: Jurkat AdCAR cells; assay: Jurkat model, static PET/MR and ex vivo biodistribution; assay type: in vivo, mice; settings: Jurkat AdCAR vs Jurkat CTRL i.p.; day 1, 3 and 7 after cell injection; 1 h resting uptake
Experimental: Five mice were injected with 1 × 10^7 cells/mL Jurkat LucGFP (CTRL), and five additional mice were injected with 1 × 10^7 cells/mL Jurkat aCAR in 200µl PBS into the peritoneal cavity with a 1 mL syringe (30G canula).
For the Jurkat model a ten-minute static PET scan was performed. The mice were anaesthetized with isoflurane (initially 5%, then 1.5-2) and a catheter was placed into the tail vein. The mice were injected with 13.6 ± 0.24 MBq of [^18F]biotin3FB on average and afterwards placed in an isoflurane box for a one-hour resting uptake. After 1 h, the mice were placed onto the scanner bed, the body was centered into the FOV, and a 10 min PET scan was performed. Afterwards, MR scans were performed as described above. The PET and MR measurements took place on day 1, 3 and 7 after cell injection. When the measurements on the 7th day were finished, the mice were sacrificed and uptake in spleen, lymph nodes, muscle and blood were quantified by ex vivo gamma-counting.
as §3

[3] = one-hour dynamic PET scan, time activity curves of organs; assay type: in vivo, NOD.CB17-Prkdcscid/J mice
Experimental: as §2
(§4) Reconstruction and analysis of the acquired PET/MR data was performed with Inveon Acquisition Workplace and Inveon Research Workplace (IRW), respectively, using dynamic framing and an ordered subset expectation maximization (OSEM) 3D algorithm. For the second part of the experiment statistic framing was used. Regions of interest (ROIs) were drawn under consideration of the acquired MR images and co-registered with the PET data to obtain time-activity curves (TACs).

[4] = system: HCT116 AdCAR xenografts; assay: HCT116 AdCAR xenograft model, PET/MR and ex vivo biodistribution by gamma-counting; assay type: in vivo, NOD.CB17-Prkdcscid/J mice
Experimental: as §1, §2, §4

[5] = ex vivo biodistribution, xenograft model

[^18F]biotin3fluorobenzoate [[^18F]biotin3FB]
uptake in xenografts, ex vivo biodistribution analysis [1]: 0.73 % ID/g
difference between AdCAR expressing cells and control cells (PET/MR, spleen uptake) [2]: no difference
SUVpeak(aCAR), brain TAC ([3]; brain, mice with HCT116 AdCAR xenografts): 0.54
SUVpeak(CTRL), brain TAC ([3]; brain, mice with HCT116 CTRL xenografts): 0.45
blood half-life ([3]; calculated from the heart TAC, i.v. tail vein): 2.3 min
radiotracer uptake in the brain [3, 5]: Almost no uptake
radiotracer uptake in the kidney [3, 5]: High radiotracer uptake
uptake in xenografts, ex vivo biodistribution analysis ([4]; AdCAR expressing xenografts, gamma-counting after 1 h dynamic PET scan, n = 5): 4.59 % ID/g
tumor-to-muscle ratio (TMR), AdCAR xenografts compared to control xenografts ([4]; P=0.0159, Mann-Whitney test, n = 5 per group): significantly higher
absolute tumor uptake, AdCAR xenografts compared to control xenografts ([4]; p = 0.0050, unpaired t test, n = 5 per group): significantly higher
